Data taken from ChEMBL document CHEMBL1135192, “Translocation of the 5-alkoxy substituent of 2,5-dialkoxyarylalkylamines to the 6-position: effects on 5-HT(2A/2C) receptor affinity” (Bioorg Med Chem Lett, 2002).

Legend:
[1] = target: T1, 5-hydroxytryptamine receptor 2A (Rattus norvegicus, UniProt P14842); experiment: Compound was evaluated for its ability to displace (+/-)[125I]-DOI from 5-hydroxytryptamine 2A receptor in cloned rat cell culture
[2] = target: T2, 5-hydroxytryptamine receptor 2C (Rattus norvegicus, UniProt P08909); experiment: Compound was evaluated for its ability to displace (+/-)[125I]-DOI from 5-hydroxytryptamine 2C receptor in cloned rat cell culture
T2 sequence (P08909 whole entry): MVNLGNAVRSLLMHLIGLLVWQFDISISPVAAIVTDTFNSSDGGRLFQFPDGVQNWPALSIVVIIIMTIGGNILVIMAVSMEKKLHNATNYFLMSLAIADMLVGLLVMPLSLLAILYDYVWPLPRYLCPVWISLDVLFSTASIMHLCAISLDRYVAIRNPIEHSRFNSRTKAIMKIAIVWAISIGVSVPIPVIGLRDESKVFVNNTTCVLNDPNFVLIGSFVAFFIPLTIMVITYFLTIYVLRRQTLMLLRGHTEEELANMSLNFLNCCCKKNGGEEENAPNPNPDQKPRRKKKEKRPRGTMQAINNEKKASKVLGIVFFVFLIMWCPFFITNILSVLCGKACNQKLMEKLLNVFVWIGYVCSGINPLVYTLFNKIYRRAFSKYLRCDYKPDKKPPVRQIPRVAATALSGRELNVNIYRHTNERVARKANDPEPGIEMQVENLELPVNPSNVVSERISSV

Rattus norvegicus = species on record: Rattus norvegicus; experiment: Drug discrimination in LSD-trained rats; assay type: functional
[3] = target: T1, 5-hydroxytryptamine receptor 2A; experiment: biochemical
Description: Compound was evaluated for its ability to displace [125I](R)-DOI from 5-hydroxytryptamine 2A receptor in cloned rat prefrontal cortex homogenate

T1 sequence (P14842 whole entry): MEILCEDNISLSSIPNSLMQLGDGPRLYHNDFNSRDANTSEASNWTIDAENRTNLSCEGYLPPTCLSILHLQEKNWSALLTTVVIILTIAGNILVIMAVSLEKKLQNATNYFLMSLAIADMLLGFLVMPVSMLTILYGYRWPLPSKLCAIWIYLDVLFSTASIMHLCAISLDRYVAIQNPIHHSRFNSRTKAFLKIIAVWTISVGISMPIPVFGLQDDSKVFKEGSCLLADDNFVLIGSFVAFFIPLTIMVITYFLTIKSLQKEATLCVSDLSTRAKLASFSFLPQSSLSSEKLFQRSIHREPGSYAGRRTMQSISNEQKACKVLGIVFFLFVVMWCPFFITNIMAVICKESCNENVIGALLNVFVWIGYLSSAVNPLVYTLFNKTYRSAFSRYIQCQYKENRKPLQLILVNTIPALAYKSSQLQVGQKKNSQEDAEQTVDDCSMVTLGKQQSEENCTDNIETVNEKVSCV

Cc1c2ccoc2c(CC(C)N)c2occc12 (stereo not drawn)
Ki [1]: 1.8 nM | Ki [2]: 0.9 nM

COc1cc(CC(C)N)c(OC)cc1C (stereo not drawn) [DOM]
ED50 (Rattus norvegicus): 0.89 µmol/kg | Ki [3]: 19 nM

Cc1c2c(c(CC(C)N)c3c1CCO3)OCC2 (stereo not drawn)
Ki [1]: 6.3 nM | Ki [2]: 7.5 nM

COc1cc(C)cc(OC)c1CC(C)N (stereo not drawn)
Ki [1]: 49 nM | Ki [2]: 50 nM
